{"source": "patent US20220143095A1", "about": "“NOVEL ANUCLEATED CELLS AND USES THEREOF” (Platelet Biogenesis, Inc., priority 2020, published 2022)", "key": {"liver fibrosis": {"test_system": "liver fibrosis", "assay": "Carbon tetrachloride liver fibrosis mouse model (hydroxyproline analysis)", "assay_type": "in vivo", "conditions": "D30, versus carbon tetrachloride mice without intervention", "description": "In order to determine if PLCs have a beneficial effect in treating liver fibrosis, fibrosis was initiated with 3× weekly application of 0.1 mL/kg injection of carbon tetrachloride diluted in corn oil for 2 weeks; control mice received corn oil itself for those 2 weeks. Carbon tetrachloride applications continued throughout the next step. Mice that received carbon tetrachloride were separated into 3 cohorts at the two-week mark: • 1. Plasmalyte application on D15, 22, 29 (Carbon Tet mice) • 2. rHGF diluted to 30 ug/mL in plasmalyte and dosed daily at 0.3 mg/kg (Peprotech HGF 100-39H-1 mg) • 3. PLC applications of ˜3e10 Platelet Equivalency Units (PEUs)/kg per mouse on D15, 22, 29. D15 was 5e10, D22 was 3e10, D29 was 5e10.\nAll mice were sacrificed on D30, livers were excised, and fresh frozen for ˜2-3 hours. Hydroxyproline analysis was done using a hydroxyproline kit (Abcam #ab222941).\nBriefly, livers were trimmed, weighed, and the homogenized in DI water at ˜10 uL water/mg of liver with a Dounce homogenizer. The equivalent of 10 mg (˜100 uL) were removed and digested in equal volume 10N NaOH for 2 hours at 120° C. Samples were cooled and quenched with 100 uL 10N HCl, vortexed, and then spun in a centrifuge for 5 mins at 10,000×g. […] Samples were then processed as the manufacturer directed and analyzed with a plate reader. […]"}, "[1]": {"assay": "In vivo localization of PLCs/HGF-ePLCs in fibrotic mice", "parameters": "species or system Immune-deficient mice (NSG)", "conditions": "30 mins after treatment", "description": "Immune-deficient mice (NSG) were dosed with 0.25 mL/kg of carbon tetrachloride 3 times per week for 2 weeks to initiate liver fibrosis. Control mice were treated with similar volumes of corn oil. On D15, fibrotic mice were treated with the following: Plasmalyte, recombinant HGF (Peprotech Cat #100-39H-1 mg), PLCs that had been generated the previous day and diluted in plasmalyte, or HGF-ePLCs that had been generated the previous day and diluted in plasmalyte. Treatments were allowed to circulate for 30 mins and then mice were sacrificed, exsanguinated, and livers were prepared and frozen for analysis.\nFIG. 32B examines circulating PLCs in blood. Blood from PLC or ePLC treatment mice was analyzed via flow cytometry with a human-specific CD61 antibody (Miltenyi Cat #130-110-754) as an indicator of circulating PLCs/ePLCs. […] In FIG. 32C, fluorescence staining of livers removed from treated fibrotic mice for HGF were performed. Livers were embedded in OCT, sectioned, and mounted on slides. Sections were then fixed in ice-cold Acetone for 10 mins and dried for an additional 20 mins. […] The results shown in FIG. 32D show fluorescence staining of livers removed from treated fibrotic mice for CD61. […]"}}}
{"substance": "HGF: recombinant HGF (Peprotech HGF 100-39H-1 mg)", "values": [{"measurement": "collagen per weight of liver", "setting": "liver fibrosis", "value": "apparent reduction of collagen per weight of liver"}, {"measurement": "HGF signal in liver (fluorescence staining)", "setting": "[1]", "value": "increase HGF signal"}]}
